Experimental data taken from patent publication US9776997B2, “3-aryl-substituted imidazo[1,2-A]pyridines and their use” (Bayer Pharma Aktiengesellschaft, priority 2013, dated 2017).

Target: T1, recombinant guanylate cyclase reporter cell line (Rattus norvegicus, UniProt P19686+P20595)
T1 construct: expressed in transfected cells; host or cells: recombinant reporter cell line
T1 sequence (P19686 1-690): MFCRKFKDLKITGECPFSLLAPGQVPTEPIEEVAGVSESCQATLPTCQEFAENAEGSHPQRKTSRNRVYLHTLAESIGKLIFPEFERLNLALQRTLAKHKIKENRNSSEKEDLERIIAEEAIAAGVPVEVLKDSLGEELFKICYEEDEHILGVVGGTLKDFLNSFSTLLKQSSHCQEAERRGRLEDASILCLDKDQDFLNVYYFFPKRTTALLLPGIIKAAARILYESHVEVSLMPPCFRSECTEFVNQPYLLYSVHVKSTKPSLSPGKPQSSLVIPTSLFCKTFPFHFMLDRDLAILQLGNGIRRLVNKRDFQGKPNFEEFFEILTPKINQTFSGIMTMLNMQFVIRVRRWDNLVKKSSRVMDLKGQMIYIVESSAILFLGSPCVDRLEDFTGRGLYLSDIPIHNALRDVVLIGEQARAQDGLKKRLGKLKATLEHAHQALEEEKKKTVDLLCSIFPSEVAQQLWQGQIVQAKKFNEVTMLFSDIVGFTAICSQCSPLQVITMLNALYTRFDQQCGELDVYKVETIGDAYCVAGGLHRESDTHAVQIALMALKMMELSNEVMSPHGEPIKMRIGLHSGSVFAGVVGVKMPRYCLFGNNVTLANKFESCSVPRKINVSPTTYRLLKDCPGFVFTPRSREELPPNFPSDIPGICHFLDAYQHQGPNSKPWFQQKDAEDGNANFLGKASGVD
T1 sequence (P20595 1-619): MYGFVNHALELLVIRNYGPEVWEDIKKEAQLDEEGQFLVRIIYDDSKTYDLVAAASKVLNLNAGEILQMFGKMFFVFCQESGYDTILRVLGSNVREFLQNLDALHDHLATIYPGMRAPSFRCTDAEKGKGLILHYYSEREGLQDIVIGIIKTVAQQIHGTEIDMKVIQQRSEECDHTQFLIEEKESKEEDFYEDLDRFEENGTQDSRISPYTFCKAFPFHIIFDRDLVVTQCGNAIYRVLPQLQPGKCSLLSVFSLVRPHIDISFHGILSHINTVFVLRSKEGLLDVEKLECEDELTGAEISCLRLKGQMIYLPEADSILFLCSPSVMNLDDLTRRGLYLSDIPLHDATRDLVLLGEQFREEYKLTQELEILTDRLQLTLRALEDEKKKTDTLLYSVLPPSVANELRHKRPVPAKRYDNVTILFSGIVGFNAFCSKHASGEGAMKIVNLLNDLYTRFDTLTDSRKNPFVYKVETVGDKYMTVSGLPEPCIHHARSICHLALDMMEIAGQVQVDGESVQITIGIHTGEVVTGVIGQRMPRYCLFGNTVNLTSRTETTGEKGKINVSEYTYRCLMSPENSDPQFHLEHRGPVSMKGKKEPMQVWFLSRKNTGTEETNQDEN
Test: Effect on a recombinant guanylate cyclase reporter cell line
Assay type: cell-based
Conditions: MEC = minimum effective concentration; in some cases mean values for individual determinations
Experimental: B-2. Effect on a Recombinant Guanylate Cyclase Reporter Cell Line
The cellular effect of the inventive compounds is determined using a recombinant guanylate cyclase reporter cell line, as described in F. Wunder et al., Anal. Biochem. 339, 104-112 (2005).
Representative MEC values (MEC=minimum effective concentration) for the inventive compounds are shown in the table below (in some cases as mean values for individual determinations): […]

Row | SMILES | MEC
1 | Cc1nc2c(OCc3c(F)cccc3F)cccn2c1-c1cn[nH]n1 [Example 134, 8-[(2,6-Difluorobenzyl)oxy]-2-methyl-3-(2H-1,2,3-triazol-4-yl)imidazo[1,2-a]pyridine] | 1.0 µM
2 | Cc1ccc(-c2c(C)nc3c(OCc4c(F)cccc4F)cc(C)cn23)cc1 [Example 135, 8-[(2,6-Difluorobenzyl)oxy]-2,6-dimethyl-3-(4-methylphenyl)imidazo[1,2-a]pyridine] | 3.0 µM
3 | Cc1cc(OCc2c(F)cccc2F)c2nc(C)c(-c3ncc(C)o3)n2c1 [Example 137, 8-[(2,6-Difluorobenzyl)oxy]-2,6-dimethyl-3-(5-methyl-1,3-oxazol-2-yl)imidazo[1,2-a]pyridine] | 3.0 µM
4 | CCOC(=O)c1ncc(-c2c(C)nc3c(OCc4c(F)cccc4F)cc(C)cn23)s1 [Example 138, Ethyl 5-{8-[(2,6-difluorobenzyl)oxy]-2,6-dimethylimidazo[1,2-a]pyridin-3-yl}-1,3-thiazole-2-carboxylate] | 3.0 µM
5 | CCOc1cc(-c2c(C)nc3c(OCc4c(F)cccc4F)cc(C)cn23)sc1N [Example 139, 5-{8-[(2,6-Difluorobenzyl)oxy]-2,6-dimethylimidazo[1,2-a]pyridin-3-yl}-3-ethoxythiophen-2-amine] | 0.1 µM
6 | Cc1cc(OCc2c(F)cccc2F)c2nc(C)c(-c3cccnc3)n2c1 [Example 140, 8-[(2,6-Difluorobenzyl)oxy]-2,6-dimethyl-3-(pyridin-3-yl)imidazo[1,2-a]pyridine] | 0.1 µM
7 | CCOC(=O)c1cc(-c2c(C)nc3c(OCc4c(F)cccc4F)cc(C)cn23)on1 [Example 141, Ethyl 5-{8-[(2,6-difluorobenzyl)oxy]-2,6-dimethylimidazo[1,2-a]pyridin-3-yl}-1,2-oxazole-3-carboxylate] | 1.0 µM
8 | Cc1cc(OCc2c(F)cccc2F)c2nc(C)c(-c3cc(CO)no3)n2c1 [Example 142, (5-{8-[(2,6-Difluorobenzyl)oxy]-2,6-dimethylimidazo[1,2-a]pyridin-3-yl}-1,2-oxazol-3-yl)methanol] | 0.1 µM
9 | Cc1cc(OCc2c(F)cccc2F)c2nc(C)c(-c3cc(CC(C)(C)N)n[nH]3)n2c1 [Example 143, 1-(3-{8-[(2,6-Difluorobenzyl)oxy]-2,6-dimethylimidazo[1,2-a]pyridin-3-yl}-1H-pyrazol-5-yl)-2-methylpropan-2-amine] | 1.0 µM

Now from value to molecule:

Row | MEC | SMILES
10 | 3.0 µM | Cc1cc(OCc2c(F)cccc2F)c2nc(C)c(-c3nnc(CC(C)(C)N)o3)n2c1 [Example 130, 1-(5-{8-[(2,6-Difluorobenzyl)oxy]-2,6-dimethylimidazo[1,2-a]pyridin-3-yl}-1,3,4-oxadiazol-2-yl)-2-methylpropan-2-amine]
11 | 1.0 µM | Cc1cc(OCc2c(F)cccc2F)c2nc(C)c(-c3noc(CC(C)(C)N)n3)n2c1 [Example 131, 1-(3-{8-[(2,6-Difluorobenzyl)oxy]-2,6-dimethylimidazo[1,2-a]pyridin-3-yl}-1,2,4-oxadiazol-5-yl)-2-methylpropan-2-amine]
12 | 0.3 µM | Cc1cc(OCc2c(F)cccc2F)c2nc(C)c(-c3nc(CC(C)(C)N)no3)n2c1.O=CO [Example 132, 1-(5-{8-[(2,6-Difluorobenzyl)oxy]-2,6-dimethylimidazo[1,2-a]pyridin-3-yl}-1,2,4-oxadiazol-3-yl)-2-methylpropan-2-amine formate]
13 | 0.3 µM | Cc1cc(OCc2c(F)cccc2F)c2nc(C)c(-c3nnc(CC(C)(C)N)s3)n2c1.O=CO [Example 133, 1-(5-{8-[(2,6-Difluorobenzyl)oxy]-2,6-dimethylimidazo[1,2-a]pyridin-3-yl}-1,3,4-thiadiazol-2-yl)-2-methylpropan-2-amine formate]
14 | 0.3 µM | Cc1cc(OCc2c(F)cccc2F)c2nc(C)c(-c3cc(CC(C)(C)N)no3)n2c1 [Example 144, 1-(5-{8-[(2,6-Difluorobenzyl)oxy]-2,6-dimethylimidazo[1,2-a]pyridin-3-yl}-1,2-oxazol-3-yl)-2-methylpropan-2-amine]
